Results as given in ChEMBL document CHEMBL4402590, “Small-Molecule Antagonist Targeting Exportin-1 via Rational Structure-Based Discovery” (J Med Chem, 2020).
Active and inactive are the calls of the source.

Legend:
Format in all cases: functional, organism-based
Mus musculus [1] = assay: Anti-inflammatory activity against DSS-induced ulcerative colitis C57BL/6J mouse model assessed as preservation of colon mucosal architecture at 3 and 30 mg/kg, po administered for 7 days and measured on day 7 by […] and eosin staining based microscopic analysis
Mus musculus [2] = assay: Anti-inflammatory activity against DSS-induced ulcerative colitis C57BL/6J mouse model assessed as reduction in colon swelling at 3 and 30 mg/kg, po administered for 7 days and measured on day 7 by […] and eosin staining based microscopic analysis
Mus musculus [3] = assay: Anti-inflammatory activity against DSS-induced ulcerative colitis C57BL/6J mouse model assessed as reduction in colon inflammation at 3 and 30 mg/kg, po administered for 7 days and measured on day 7 by […] and eosin staining based microscopic analysis
Mus musculus [4] = assay: Anti-inflammatory activity against DSS-induced ulcerative colitis C57BL/6J mouse model assessed as reduction in colon ulceration at 3 and 30 mg/kg, po administered for 7 days and measured on day 7 by […] and eosin staining based microscopic analysis
Mus musculus [5] = assay: Anti-inflammatory activity against DSS-induced ulcerative colitis C57BL/6J mouse model assessed as re-epithelialization of colon at 3 and 30 mg/kg, po administered for 7 days and measured on day 7 by […] and eosin staining based microscopic analysis

Measured: Activity

Nc1ccc(O)c(C(=O)O)c1
inactive: all assays above
